Assay results taken from patent US10253086B2, “CD20 therapies, CD22 therapies, and combination therapies with a CD19 chimeric antigen receptor (CAR)-expressing cell” (Novartis AG, priority 2015, dated 2019).

Experiments:
CAR T cells [1] = assay: huCAR19 CAR T cell expansion in vivo with RAD001; design: species or system NSG mice; conditions: lowest doses of RAD001, daily oral
Experimental: CAR T cell dosing: Mice were administered 5×10^6 CAR T cells 7 days after tumor implantation. Cells were partially thawed in a 37 degree Celsius water bath and then completely thawed by the addition of 1 ml of cold sterile PBS to the tube containing the cells. The thawed cells were transferred to a 15 ml falcon tube and adjusted to a final volume of 10 mls with PBS. The cells were washed twice at 1000 rpm for 10 minutes each time and then counted on a hemocytometer. T cells were then resuspended at a concentration of 50×10^6 CAR T cells per ml of cold PBS and kept on ice until the mice were dosed. The mice were injected intravenously via the tail vein with 100 μl of the CAR T cells for a dose of 5×10^6 CAR T cells per mouse. Eight mice per group were treated either with 100 μl of PBS alone (PBS), or humanized CD19 CAR T cells.
(§1) RAD001 dosing: A concentrated micro-emulsion of 50 mg equal to 1 mg RAD001 was formulated and then resuspended in D5W (dextrose 5% in water) at the time of dosing. Mice were orally dosed daily (via oral gavage) with 200 μl of the desired doses of RAD001.
Based on these doses, huCAR19 CAR T cells were dosed with and without RAD001 to determine the proliferative ability of these cells. The highest dose used was 3 mg/kg based on the levels of RAD001 in the blood 24 hours after dosing. […] Mice were monitored via FACS for T cell expansion. […]

CAR T cells [2] = assay: In vivo proliferation of humanized CD19 CART cells with and without RAD001 dosing; conditions: RAD001 0.003 mg/kg daily with huCTL019; versus normal level of huCAR19 proliferation
Experimental: FIGS. 62A and 62B show in vivo proliferation of humanized CD19 CART cells with and without RAD001 dosing. […] Circles denote PBS; squares denote huCTL019; triangles denote huCTL019 with 3 mg/kg RAD001; inverted triangles denote huCTL019 with 0.3 mg/kg RAD001; diamonds denote huCTL019 with 0.03 mg/kg RAD001; and circles denote huCTL019 with 0.003 mg/kg RAD001.

[3] = test system: CAR-expressing, transduced T cells; assay: CART co-culture with NALM6 cells in the presence of RAD001; assay type: cell-based; conditions: low doses of RAD001 (nM); 4 days of co-culture with NALM6
Experimental: CARTs were co-cultured with NALM6 (Nalm-6) cells in the presence of different concentrations of RAD001 (nM). The number of CAR-positive CD3-positive T cells (black) and total T cells (white) was assessed after 4 days of co-culture.

NALM6-luc tumors = assay: RAD001 alone on growth of NALM6-luc tumors; assay type: in vivo, NSG mice; conditions: daily oral dosing of RAD001 alone
Experimental: NALM6-luc cells: The NALM6 human acute lymphoblastic leukemia (ALL) cell line was developed from the peripheral blood of a patient with relapsed ALL. The cells were then tagged with firefly luciferase. These suspension cells grow in RPMI supplemented with 10% heat inactivated fetal bovine serum.
Mice: 6 week old NSG (NOD.Cg-PrkdcscidIl2rgtm1Wjl/SzJ) mice were received from the Jackson Laboratory (stock number 005557).
Tumor implantation: NALM6-luc cells were grown and expanded in vitro in RPMI supplemented with 10% heat inactivated fetal bovine serum. The cells were then transferred to a 15 ml conical tube and washed twice with cold sterile PBS. NALM6-luc cells were then counted and resuspended at a concentration of 10×10^6 cells per milliliter of PBS. The cells were placed on ice and immediately (within one hour) implanted in the mice. NALM6-luc cells were injected intravenously via the tail vein in a 100 μl volume, for a total of 1×10^6 cells per mouse.
as §1
(§2) The expansion and pharmacokinetics of RAD001 was tested in NSG mice with NALM6-luc tumors.

NALM6 (Nalm-6) = assay: 4 day co-culture proliferation of huCART19 with RAD001; assay type: cell-based, human
Experimental: To evaluate the functionality of CARTs, the T cells are thawed and counted, and viability is assessed by Cellometer. The number of CAR-positive cells in each culture is normalized using non-transduced T cells (UTD). The impact of RAD001 on CARTs was tested in titrations with RAD001, starting at 50 nM. The target cell line used in all co-culture experiments is NALM6 (Nalm-6), a human pre-B cell acute lymphoblastic leukemia (ALL) cell line expressing CD19 and transduced to express luciferase.
For measuring the proliferation of CARTs, T cells are cultured with target cells at a ratio of 1:1. The assay is run for 4 days, when cells are stained for CD3, CD4, CD8 and CAR expression. The number of T cells is assessed by flow cytometry using counting beads as reference.
The proliferative capacity of CART cells was tested in a 4 day co-culture assay.

[4] = RAD001 PK analysis in tumor bearing mice; assay type: in vivo, NSG mice
Experimental: as §1
PK analysis: Mice were dosed daily with RAD001 starting 7 days post tumor implantation. Dosing groups were as follows: 0.3 mg/kg, 1 mg/kg, 3 mg/kg, and 10 mg/kg. Mice were bled on days 0 and 14 following the first and last dose of RAD001, at the following time points for PK analysis: 15 minutes, 30 minutes, 1 hour, 2 hours, 4 hours, 8 hours, 12 hours, and 24 hours.
as §2

r/r B-ALL = conditions: cited from earlier work

| Compound | proliferation of the CAR T cells in vivo (CAR T cells [1]) | CAR T cell proliferation in vivo (CAR T cells [2]) | proliferation of CAR-expressing, transduced T cells [3] | growth of NALM6-luc tumors (NALM6-luc tumors) | proliferation of huCART19 cells (NALM6 (Nalm-6); 0.0032 and 0.016 nM RAD001) | RAD001 concentration at which huCART19 cells expanded (NALM6 (Nalm-6); lesser extent at higher concentrations) | concentration of RAD001 in blood ([4]; 24 hours after the final dose) | concentration at 24 h ([4]; NSG, mouse, whole blood, oral, 24 hours after dosing, 0.3 mg/kg, day 0 and day 14, read-out: RAD001 concentrations in the blood) | stability in the blood of tumor bearing mice ([4]; mouse, in vivo) | share of relapses that are CD19-negative (r/r B-ALL) |
| --- | --- | --- | --- | --- | --- | --- | --- | --- | --- | --- |
| CO[C@H]1C[C@@H]2CC[C@@H](C)[C@@](O)(O2)C(=O)C(=O)N2CCCC[C@H]2C(=O)O[C@H]([C@H](C)C[C@@H]2CC[C@@H](OCCO)[C@H](OC)C2)CC(=O)[C@H](C)/C=C(\C)[C@@H](O)[C@@H](OC)C(=O)[C@H](C)C[C@H](C)/C=C/C=C/C=C/1C [RAD001, everolimus] | enhanced proliferation of the CAR T cells | enhancement in CAR T cell proliferation | enhanced | did not have an impact on the growth of NALM6-luc tumors | higher than observed without the addition of RAD001 | less than 0.016 nM | above 10 nM | > 10 nM | fairly stable in the blood | – |
| blinatumomab: bi-specific anti-CD19/CD3 antibody combining an anti-CD19 scFv with an anti-CD3 scFv | – | – | – | – | – | – | – | – | – | about 30% |
